Assay results from patent publication US20230416239A1, “COMPOUNDS AND METHODS FOR TREATING A CYTOKINE-MEDIATED DISEASE” (CONSERVATOIRE NATIONAL DES ARTS ET MÉTIERS, priority 2020, published 2023).
pIC50: −log10 of the molar value.

How the values were obtained:
TNFα = TNFα (Homo sapiens, UniProt P01375); test: Immunoassay binding test, TNFa; conditions: compounds 100 to 0.78 μM; TNFα 10 ng/ml, receptor 100 ng/ml; read-out: BINDING TNF IC50
Experimental: Microtiter plates (96 wells) are covered with 100 μl of receptor per well, and incubated overnight at 4° C. The following day, after 2 washes in PBS/Tween20, the plates are saturated with 150 μl of PBS/BSA 2% per well, for 2 h at 37° C. […] The cytokine is diluted in series (six concentrations) in a final volume of 120 μl per well. […] The different mixtures are incubated for 2 h at 37° C. 100 μl of each mixture are then transferred to the microtiter plate, respecting the plate plan previously defined and incubated overnight at 4° C. After three washes, 100 μl of biotinylated anti-cytokine secondary antibody are added to each well, then incubated for 2 h at 37° C. After three washes, 100 μl of Avidin-HRP (1/500th dilution) are added and incubated for 30 minutes at 37° C. […] The plates are then read with a spectrophotometer at 450 nm, measuring the optical density for each well.
(§1) This binding test is carried out with different cytokines: TNFa, IL-4, IL-6 and IL-13. For IL-6, the incubation of molecules with the cytokine also requires the presence of IL-6Ra at a final concentration of 200 ng/ml.
(§2) The final concentrations used for each of the cytokines are presented below: […]

IL-6 = IL-6 (Homo sapiens, UniProt P05231); test: Immunoassay binding test, IL-6 (gp130 receptor, IL-6Ra present); conditions: IL-6Ra 200 ng/ml
Experimental: (§3) Microtiter plates (96 wells) are covered with 100 μl of receptor per well, and incubated overnight at 4° C. The following day, after 2 washes in PBS/Tween20, the plates are saturated with 150 μl of PBS/BSA 2% per well, for 2 h at 37° C. Synthetic compounds are diluted in series (final concentrations: 100 to 0.78 μM) then a fixed amount of cytokine in PBS/BSA 1% is added to the compounds, in a final volume of 120 μl per well. […] The cytokine is diluted in series (six concentrations) in a final volume of 120 μl per well. The cytokine is used in the absence of small molecule as well as the range of SPD304 as positive controls and the absence of cytokine and synthetic molecule as negative control. The different mixtures are incubated for 2 h at 37° C. 100 μl of each mixture are then transferred to the microtiter plate, respecting the plate plan previously defined and incubated overnight at 4° C. After three washes, 100 μl of biotinylated anti-cytokine secondary antibody are added to each well, then incubated for 2 h at 37° C. After three washes, 100 μl of Avidin-HRP (1/500th dilution) are added and incubated for 30 minutes at 37° C. […] The plates are then read with a spectrophotometer at 450 nm, measuring the optical density for each well.
as §1, §2

IL-13 = IL-13 (Homo sapiens, UniProt P35225); test: Immunoassay binding test, IL-13; conditions: for pIC50: IL-13 400 ng/ml, receptor 100 ng/ml, read-out: BINDING IL13 IC50
Experimental: Microtiter plates (96 wells) are covered with 100 μl of receptor per well, and incubated overnight at 4° C. The following day, after 2 washes in PBS/Tween20, the plates are saturated with 150 μl of PBS/BSA 2% per well, for 2 h at 37° C. Synthetic compounds are diluted in series (final concentrations: 100 to 0.78 μM) then a fixed amount of cytokine in PBS/BSA 1% is added to the compounds, in a final volume of 120 μl per well. […] The cytokine is diluted in series (six concentrations) in a final volume of 120 μl per well. […] The different mixtures are incubated for 2 h at 37° C. 100 μl of each mixture are then transferred to the microtiter plate, respecting the plate plan previously defined and incubated overnight at 4° C. After three washes, 100 μl of biotinylated anti-cytokine secondary antibody are added to each well, then incubated for 2 h at 37° C. After three washes, 100 μl of Avidin-HRP (1/500th dilution) are added and incubated for 30 minutes at 37° C. […] The plates are then read with a spectrophotometer at 450 nm, measuring the optical density for each well.
as §1, §2

IL-4 = biological target: T1, IL-4 (Homo sapiens, UniProt P05112); test: Immunoassay binding test, IL-4; conditions: for pIC50: IL-4 400 ng/ml, receptor 100 ng/ml, read-out: BINDING IL4 IC50
T1 sequence (P05112 25-153): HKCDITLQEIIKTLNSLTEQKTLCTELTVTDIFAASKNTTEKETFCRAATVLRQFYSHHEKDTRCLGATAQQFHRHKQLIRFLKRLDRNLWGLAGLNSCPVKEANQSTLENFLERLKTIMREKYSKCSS
Experimental: as §3, §1, §2

TNFa/TNFRI interaction = TNFa/TNFRI interaction (Homo sapiens, UniProt P01375); test: TNFa/TNFRI interaction displacement test; assay type: binding; conditions: for Displacement EC50 TNFa in presence of compound: Difference: Compound EC50 minus SPD304 EC50; for Displacement (%): compounds at 50 μM, human TNFRI 100 ng/ml;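 as to Displacement EC50 TNFa in presence of compound: Difference: SPD304 reference at 20 µM final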
Experimental: Microtiter plates (96 wells) are covered with 100 μl per well of human TNFRI, at a concentration of 100 ng/ml, then incubated overnight at 4° C. The following day, after two washes in PBS/Tween20, the plates are saturated with 150 μl of PBS/BSA 2% for 2 h at 37° C.
100 μl of each mixture are then transferred to the microtiter plate, respecting the established plate plan and incubated overnight at 4° C.
After three washes, 100 μl of biotinylated anti-cytokine secondary antibody are added to each well and incubated for 2 h at 37° C. After three washes, 100 Avl Avidin-HRP (dilution 1/500th) are added and incubated for 30 minutes at 37° C. […] The plates are then read with a spectrophotometer at 450 nm, measuring the optical density (OD) for each well.

IL-6, sequence (P05231 30-212, species assumed): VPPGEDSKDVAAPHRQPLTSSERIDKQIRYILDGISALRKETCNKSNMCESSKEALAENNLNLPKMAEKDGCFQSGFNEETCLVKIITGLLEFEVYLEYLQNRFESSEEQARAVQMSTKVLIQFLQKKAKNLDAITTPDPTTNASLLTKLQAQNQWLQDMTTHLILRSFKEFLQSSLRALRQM
IL-13, sequence (P35225 25-146, species assumed): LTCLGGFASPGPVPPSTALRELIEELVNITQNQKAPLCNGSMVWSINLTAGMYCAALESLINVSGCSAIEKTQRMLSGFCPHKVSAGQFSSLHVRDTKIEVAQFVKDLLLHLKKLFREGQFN
TNFa/TNFRI interaction, sequence (P01375 77-233 limits assumed): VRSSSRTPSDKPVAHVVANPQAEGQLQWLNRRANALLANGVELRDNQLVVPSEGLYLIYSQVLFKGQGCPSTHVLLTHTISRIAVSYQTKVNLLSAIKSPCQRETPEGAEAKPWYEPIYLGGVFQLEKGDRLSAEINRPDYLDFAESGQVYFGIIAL
TNFα, sequence (P01375 77-233 limits assumed, species assumed): as the sequence (P01375 77-233 limits assumed) above

Row | pIC50 (TNFα) | BINDING IL6 % Neutra at 100 μM (IL-6) | BINDING IL13 % Neutra at 100 μM (IL-13) | pIC50 (IL-13) | BINDING IL4 % Neutra at 100 μM (IL-4) | pIC50 (IL-4) | Displacement EC50 TNFa in presence of compound: Difference (TNFa/TNFRI interaction) | Displacement (%) (TNFa/TNFRI interaction) | Compound
1 | 4.91 | 3.3% | 81.7% | < 4.30 | 98.1% | 5.28 | 10.9 ng/mL | 168% | O=S(=O)(c1ccccc1)n1cc(CN(CCCNC2CCCCC2)Cc2ccncc2)c2ccccc21 [Compound 8]
2 | 5.14 | 21% | 59.7% | < 4.30 | 94.4% | 5.10 | 4.3 ng/mL | 175% | CN(CCCN(Cc1cccnc1)Cc1cn(S(=O)(=O)c2ccccc2)c2ccccc12)C1CCCCC1 [Compound 9]
3 | 4.64 | 10.7% | 91.1% | < 4.30 | 96.4% | 5.26 |  | 121% | FC(F)(F)c1cccc(-n2cc(CN(CCCNC3CCCCC3)Cc3cccnc3)c3ccccc32)c1 [Compound 10]
4 | 5.36 | −3% | 90.2% | < 4.30 | 97.6% | 5.21 |  | 215% | CN(CCCN(Cc1ccncc1)Cc1cn(S(=O)(=O)c2ccccc2)c2ccccc12)C1CCCCC1 [Compound 11]
5 | 5.17 | 1.6% | 58.2% | < 4.30 | 96.3% | 4.91 | 14.2 ng/mL | 172% | FC(F)(F)c1cccc(-n2cc(CN(CCCNC3CCCCC3)Cc3ccncc3)c3ccccc32)c1 [Compound 12]
6 | 5.37 | 8.9% | 85.2% | < 4.30 | 97.9% | 5.30 | 6.4 ng/mL | 186% | CN(CCCN(Cc1cccnc1)Cc1cn(-c2cccc(C(F)(F)F)c2)c2ccccc12)C1CCCCC1 [Compound 13]
7 | 4.93 | 2.8% | 91.2% | < 4.30 | 98.4% | 5.28 |  | 149% | CN(CCCN(Cc1ccncc1)Cc1cn(-c2cccc(C(F)(F)F)c2)c2ccccc12)C1CCCCC1 [Compound 14]
8 | 5.09 | 11.5% | 94.8% | < 4.30 | 99% | 5.20 | 5.1 ng/mL | 167% | O=S(=O)(c1ccccc1)n1cc(CN(CCCCNC2CCCCC2)Cc2cccnc2)c2ccccc21 [Compound 15]
9 | 5.27 | 15.7% | 88.2% | < 4.30 | 99.5% | 5.32 | 4.7 ng/mL | 165% | O=S(=O)(c1ccccc1)n1cc(CN(CCCCNC2CCCCC2)Cc2ccncc2)c2ccccc21 [Compound 16]
10 | 5.96 | 20.7% | 87.7% | < 4.30 | 97.9% | 5.30 |  | 133% | CN(CCCCN(Cc1cccnc1)Cc1cn(S(=O)(=O)c2ccccc2)c2ccccc12)C1CCCCC1 [Compound 17]
11 | 5.66 | 16.3% | 94.2% | 4.09 | 98.4% | 5.28 | Difference = 6 ng/ml | 145% | CN(CCCCN(Cc1ccncc1)Cc1cn(S(=O)(=O)c2ccccc2)c2ccccc12)C1CCCCC1 [Compound 18]
12 | 4.96 | 12.6% | 98.1% | < 4.30 | 99% | 5.20 | 9.9 ng/mL | 169% | O=S(=O)(c1ccccc1)n1cc(CN(Cc2ccnc(F)c2)CC2CCCN(C3CCCCC3)C2)c2ccccc21 (stereo not shown) [Compound 19]
13 | 4.71 | 18.5% | 97.5% | 5.21 | 99.5% | 5.32 |  | 88% | Fc1cc(CN(Cc2cn(-c3cccc(C(F)(F)F)c3)c3ccccc23)CC2CCCN(C3CCCCC3)C2)ccn1 (stereo not shown) [Compound 20]
14 | 4.85 | 3.7% | 94.6% | 4.71 | 98% | 5.68 | 4.9 ng/mL | 141% | FC(F)(F)c1cccc(-n2cc(CN(CCCCNC3CCCCC3)Cc3cccnc3)c3ccccc32)c1 [Compound 21]
15 | 4.77 | -1.3% | 95.2% | < 4.30 | 98.4% | 5.39 |  | 120% | FC(F)(F)c1cccc(-n2cc(CN(CCCCNC3CCCCC3)Cc3ccncc3)c3ccccc32)c1 [Compound 22]
16 | 5.03 | 5.6% | 85.8% | < 4.30 | 98.1% | 5.31 | 5.5 ng/mL | 140% | CN(CCCCN(Cc1cccnc1)Cc1cn(-c2cccc(C(F)(F)F)c2)c2ccccc12)C1CCCCC1 [Compound 23]
17 | 4.87 | 3.6% | 85.3% | < 4.30 | 98.8% | 5.51 | 6.3 ng/mL | 158% | CN(CCCCN(Cc1ccncc1)Cc1cn(-c2cccc(C(F)(F)F)c2)c2ccccc12)C1CCCCC1 [Compound 24]
